Patent publication US9556179B2 (BRISTOL-MYERS SQUIBB COMPANY, priority 2012, dated 2017)
pIC50: −log10 of the molar value.

Legend:
CK1ε = CK1ε (Homo sapiens (Human), UniProt P49674); assay: CK1ε kinase assay (Caliper LABCHIP electrophoretic separation of fluoresceinated peptide substrate and product); assay type: biochemical; settings: 200 pM enzyme, 50 μM ATP, 22 hours at room temperature
Procedure, shortened: (§1)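 Compounds, taken from 10 mM DMSO stocks, are titrated at eleven concentrations. Kinase reactions proceed for 22 hours at room temperature and are quenched with EDTA. Substrate and product are resolved electrophoretically, and IC50 values are fitted by non-linear regression.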

CK1δ = CK1δ (Homo sapiens (Human), UniProt P48730); assay: CK1δ kinase assay (Caliper LABCHIP electrophoretic separation of fluoresceinated peptide substrate and product); assay type: biochemical; settings: 200 pM enzyme, 50 μM ATP, 22 hours at room temperature
Sequence of CK1δ (P48730 whole entry): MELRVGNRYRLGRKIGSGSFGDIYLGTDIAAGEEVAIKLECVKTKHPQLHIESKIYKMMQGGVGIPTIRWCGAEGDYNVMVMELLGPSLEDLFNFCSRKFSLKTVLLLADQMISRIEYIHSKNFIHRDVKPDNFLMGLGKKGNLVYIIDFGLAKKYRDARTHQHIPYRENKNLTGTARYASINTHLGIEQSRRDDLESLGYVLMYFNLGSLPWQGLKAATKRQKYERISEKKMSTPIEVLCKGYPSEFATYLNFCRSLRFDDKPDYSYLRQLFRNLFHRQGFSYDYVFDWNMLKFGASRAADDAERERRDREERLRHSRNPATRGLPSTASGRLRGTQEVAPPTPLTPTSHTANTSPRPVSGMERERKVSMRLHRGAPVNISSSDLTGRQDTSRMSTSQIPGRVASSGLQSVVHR
Procedure, shortened: as §1

Sequence of CK1ε (P49674 whole entry): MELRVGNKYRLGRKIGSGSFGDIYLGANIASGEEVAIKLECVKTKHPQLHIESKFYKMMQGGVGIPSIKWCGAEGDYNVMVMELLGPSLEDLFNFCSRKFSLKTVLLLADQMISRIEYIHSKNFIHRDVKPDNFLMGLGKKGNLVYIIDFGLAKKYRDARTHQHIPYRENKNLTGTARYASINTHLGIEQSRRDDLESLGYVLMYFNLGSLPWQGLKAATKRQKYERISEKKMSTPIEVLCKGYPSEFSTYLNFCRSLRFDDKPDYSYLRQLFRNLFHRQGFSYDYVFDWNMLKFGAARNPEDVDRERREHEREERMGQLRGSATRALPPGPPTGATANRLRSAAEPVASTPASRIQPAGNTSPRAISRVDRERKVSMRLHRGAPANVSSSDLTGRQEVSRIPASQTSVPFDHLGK

pIC50 (CK1ε)	pIC50 (CK1δ)	SMILES
9.02	9.08	Cc1nc(-c2ccc(F)cc2)c(-c2ccc3nc(NC(=O)c4c[nH]c5ccncc45)cn3n2)n1C [Compound 334, N-(6-(4-(4-fluorophenyl)-1,2-dimethyl-1H-imidazol-5-yl)imidazo[1,2-b]pyridazin-2-yl)-1H-pyrrolo[3,2-c] pyridine-3-carboxamide]
8.59	9.32	Cc1nc(-c2ccc(F)cc2)c(-c2ccc3nc(NC(=O)c4ccns4)cn3n2)n1C [Compound 335, N-(6-(4-(4-fluorophenyl)-1,2-dimethyl-1H-imidazol-5-yl)imidazo[1,2-b]pyridazin-2-yl)-5-isothiazolecarboxamide]
8.66	9.29	Cc1nc(-c2ccc(F)cc2)c(-c2ccc3nc(NC(=O)c4ccc5ncccc5c4)cn3n2)n1C [Compound 336, N-(6-(4-(4-fluorophenyl)-1,2-dimethyl-1H-imidazol-5-yl)imidazo[1,2-b]pyridazin-2-yl)-6-quinolinecarboxamide]
8.59	9.57	Cc1nc(-c2ccc(F)cc2)c(-c2ccc3nc(NC(=O)c4ccc5cccnc5c4)cn3n2)n1C [Compound 337, N-(6-(4-(4-fluorophenyl)-1,2-dimethyl-1H-imidazol-5-yl)imidazo[1,2-b]pyridazin-2-yl)-7-quinolinecarboxamide]
9.11	9.43	Cc1c[nH]c(C(=O)Nc2cn3nc(-c4c(-c5ccc(F)cc5)nc(C)n4C)ccc3n2)c1 [Compound 338, N-(6-(4-(4-fluorophenyl)-1,2-dimethyl-1H-imidazol-5-yl)imidazo[1,2-b]pyridazin-2-yl)-4-methyl-1H-pyrrole-2-carboxamide]
8.79	9.73	Cc1nc(-c2ccc(F)cc2)c(-c2ccc3nc(NC(=O)c4ccc5cnccc5c4)cn3n2)n1C [Compound 339, N-(6-(4-(4-fluorophenyl)-1,2-dimethyl-1H-imidazol-5-yl)imidazo[1,2-b]pyridazin-2-yl)isoquinoline-6-carboxamide]
8.20	9.40	Cc1nc(-c2ccc(F)cc2)c(-c2ccc3nc(NC(=O)c4snnc4-c4ccccc4)cn3n2)n1C [Compound 340, N-(6-(4-(4-fluorophenyl)-1,2-dimethyl-1H-imidazol-5-yl)imidazo[1,2-b]pyridazin-2-yl)-4-phenyl-1,2,3-thiadiazole-5-carboxamide]
8.05	8.88	Cc1nc(-c2ccc(F)cc2)c(-c2ccc3nc(NC(=O)c4cc5c(F)cccc5[nH]4)cn3n2)n1C [Compound 341, 4-fluoro-N-(6-(4-(4-fluoro-phenyl)-1,2-dimethyl-1H-imidazol-5-yl)imidazo[1,2-b]pyridazin-2-yl)-1H-indole-2-carboxamide]
8.31	8.85	Cc1nc(-c2ccc(F)cc2)c(-c2ccc3nc(NC(=O)c4c[nH]c5ccccc45)cn3n2)n1C [Compound 342, N-(6-(4-(4-fluorophenyl)-1,2-dimethyl-1H-imidazol-5-yl)imidazo[1,2-b]pyridazin-2-yl)-1H-indole-3-carboxamide]
8.66	9.04	Cc1nc(-c2ccc(F)cc2)c(-c2ccc3nc(NC(=O)c4c[nH]c5ncccc45)cn3n2)n1C [Compound 343, N-(6-(4-(4-fluorophenyl)-1,2-dimethyl-1H-imidazol-5-yl)imidazo[1,2-b]pyridazin-2-yl)-1H-pyrrolo[2,3-b] pyridine-3-carboxamide]
6.95	7.84	Cc1nc(-c2ccc(F)cc2)c(-c2ccc3nc(NC(=O)c4cccc5cccnc45)cn3n2)n1C [Compound 344, N-(6-(4-(4-fluorophenyl)-1,2-dimethyl-1H-imidazol-5-yl)imidazo[1,2-b]pyridazin-2-yl)-8-quinolinecarboxamide]
8.92	9.42	COc1cccc2[nH]c(C(=O)Nc3cn4nc(-c5c(-c6ccc(F)cc6)nc(C)n5C)ccc4n3)cc12 [Compound 347, N-(6-(4-(4-fluorophenyl)-1,2-dimethyl-1H-imidazol-5-yl)imidazo[1,2-b]pyridazin-2-yl)-4-methoxy-1H-indole-2-carboxamide]
8.24	8.79	Cc1nc(-c2ccc(F)cc2)c(-c2ccc3nc(NC(=O)c4cc[nH]c4)cn3n2)n1C [Compound 348, N-(6-(4-(4-fluorophenyl)-1,2-dimethyl-1H-imidazol-5-yl)imidazo[1,2-b]pyridazin-2-yl)-1H-pyrrole-3-carboxamide]
8.49	9.23	Cc1nc(-c2ccc(F)cc2)c(-c2ccc3nc(NC(=O)c4ccnn4C)cn3n2)n1C [Compound 352, N-(6-(4-(4-fluorophenyl)-1,2-dimethyl-1H-imidazol-5-yl)imidazo[1,2-b]pyridazin-2-yl)-1-methyl-1H-pyrazole-5-carboxamide]
7.13	8.31	CC(=O)N1CCCC1C(=O)Nc1cn2nc(-c3c(-c4ccc(F)cc4)nc(C)n3C)ccc2n1 [Compound 353, 1-acetyl-N-(6-(4-(4-fluoro-phenyl)-1,2-dimethyl-1H-imidazol-5-yl)imidazo[1,2-b]pyridazin-2-yl)-L-pro-linamide]
7.97	8.85	Cc1nc(-c2ccc(F)cc2)c(-c2ccc3nc(NC(=O)c4ccn(C)n4)cn3n2)n1C [Compound 354, N-(6-(4-(4-fluorophenyl)-1,2-dimethyl-1H-imidazol-5-yl)imidazo[1,2-b]pyridazin-2-yl)-1-methyl-1H-pyrazole-3-carboxamide]
7.41	8.42	Cc1nc(-c2ccc(F)cc2)c(-c2ccc3nc(NC(=O)c4cocn4)cn3n2)n1C [Compound 355, N-(6-(4-(4-fluorophenyl)-1,2-dimethyl-1H-imidazol-5-yl)imidazo[1,2-b]pyridazin-2-yl)-1,3-oxazole-4-carboxamide]
8.72	9.29	Cc1nc(-c2ccc(F)cc2)c(-c2ccc3nc(NC(=O)c4ccc(C#N)cc4)cn3n2)n1C [Compound 356, 4-cyano-N-(6-(4-(4-fluoro-phenyl)-1,2-dimethyl-1H-imidazol-5-yl)imidazo[1,2-b]pyridazin-2-yl)benzamide]
7.75	8.83	Cc1nc(-c2ccc(F)cc2)c(-c2ccc3nc(NC(=O)c4cccn4C)cn3n2)n1C [Compound 357, N-(6-(4-(4-fluorophenyl)-1,2-dimethyl-1H-imidazol-5-yl)imidazo[1,2-b]pyridazin-2-yl)-1-methyl-1H-pyrrole-2-carboxamide]
8.41	9.27	Cc1nc(-c2ccc(F)cc2)c(-c2ccc3nc(NC(=O)c4ccc[nH]4)cn3n2)n1C [Compound 358, N-(6-(4-(4-fluorophenyl)-1,2-dimethyl-1H-imidazol-5-yl)imidazo[1,2-b]pyridazin-2-yl)-1H-pyrrole-2-carbox-amide]
8.50	9.22	Cc1nc(-c2ccc(F)cc2)c(-c2ccc3nc(NC(=O)c4cnn(C)c4)cn3n2)n1C [Compound 359, N-(6-(4-(4-fluorophenyl)-1,2-dimethyl-1H-imidazol-5-yl)imidazo[1,2-b]pyridazin-2-yl)-1-methyl-1H-pyrazole-4-carboxamide]
5.90	7.13	Cc1nocc1C(=O)Nc1cn2nc(-c3c(-c4ccc(F)cc4)nc(C)n3C)ccc2n1 [Compound 361, N-(6-(4-(4-fluorophenyl)-1,2-dimethyl-1H-imidazol-5-yl)imidazo[1,2-b]pyridazin-2-yl)-3-methyl-4-isoxazole-carboxamide]
7.06	8.20	Cc1nc(-c2ccc(F)cc2)c(-c2ccc3nc(NC(=O)c4cn(C)cn4)cn3n2)n1C [Compound 362, N-(6-(4-(4-fluorophenyl)-1,2-dimethyl-1H-imidazol-5-yl)imidazo[1,2-b]pyridazin-2-yl)-1-methyl-1H-imidazole-4-carboxamide]
7.58	8.63	CC(=O)N1CCCC1C(=O)Nc1cn2nc(-c3c(-c4ccc(F)cc4)nc(C)n3C)ccc2n1 (stereo not shown) [Compound 363, 1-acetyl-N-(6-(4-(4-fluoro-phenyl)-1,2-dimethyl-1H-imidazol-5-yl)imidazo[1,2-b]pyridazin-2-yl)prolinamide]
8.40	9.25	Cc1nc(-c2ccc(F)cc2)c(-c2ccc3nc(NC(=O)c4cn[nH]c4)cn3n2)n1C [Compound 364, N-(6-(4-(4-fluorophenyl)-1,2-dimethyl-1H-imidazol-5-yl)imidazo[1,2-b]pyridazin-2-yl)-1H-pyrazole-4-carboxamide]
5.96	6.99	Cc1oncc1C(=O)Nc1cn2nc(-c3c(-c4ccc(F)cc4)nc(C)n3C)ccc2n1 [Compound 365, N-(6-(4-(4-fluorophenyl)-1,2-dimethyl-1H-imidazol-5-yl)imidazo[1,2-b]pyridazin-2-yl)-5-methyl-4-isoxazole-carboxamide]
7.60	8.76	Cc1nc(-c2ccc(F)cc2)c(-c2ccc3nc(NC(=O)C4CCC(=O)N4)cn3n2)n1C (stereo not shown) [Compound 366, N-(6-(4-(4-fluorophenyl)-1,2-dimethyl-1H-imidazol-5-yl)imidazo[1,2-b]pyridazin-2-yl)-5-oxoprolinamide]
7.30	8.44	Cc1nnc(C(=O)Nc2cn3nc(-c4c(-c5ccc(F)cc5)nc(C)n4C)ccc3n2)o1 [Compound 367, N-(6-(4-(4-fluorophenyl)-1,2-dimethyl-1H-imidazol-5-yl)imidazo[1,2-b]pyridazin-2-yl)-5-methyl-1,3,4-oxa-diazole-2-carboxamide]
8.06	8.85	Cc1cc(C(=O)Nc2cn3nc(-c4c(-c5ccc(F)cc5)nc(C)n4C)ccc3n2)nn1C [Compound 369, N-(6-(4-(4-fluorophenyl)-1,2-dimethyl-1H-imidazol-5-yl)imidazo[1,2-b]pyridazin-2-yl)-1,5-dimethyl-1H-pyrazole-3-carboxamide]
